Measurements reported in US4645769A, “1-oxa-1-dethia-cephalosporin compounds and antibacterial agent comprising the same” (Merck & Co., Inc., priority 1985, dated 1987).
Converted amounts (≈) assume the structure as drawn. Structures can show the parent of a compound that is named as a salt. Where two headings read alike, the source gives them in different places.

Columns and labels:
[1] = test system: Streptococcus faecalis ATCC 8043; experiment: Minimum Inhibitory Concentration (MIC), antibacterial spectrum in vitro; assay type: cell-based; details: Enterococcus faecalis
[2] = test system: Pseudomonas aeruginosa MB-3833; experiment: as above; assay type: cell-based
[3] = test system: Pseudomonas aeruginosa (GN 10362); experiment: Efficacy in Mice Infected with Pseudomonas aeruginosa (GN 10362); assay type: in vivo; details: GN10362, sc, 168 h
From the text: (§1) A systemic infection was produced by intraperitoneal injection of the appropriate pathogen to mice (five male mice in each group, average body weight 20 g), and the mice were received single subcutaneous dose of the compound one hour after the infection.

[4] = test system: Salmonella typhimurium LT-2; experiment: Minimum Inhibitory Concentration (MIC), antibacterial spectrum in vitro; assay type: cell-based; details: Salmonella enterica, read-out: Minimum Inhibitory Concentration (MIC)
[5] = test system: Staphylococcus aureus 209 P JC-1; experiment: as above; assay type: cell-based
[6] = test system: Esherichia coli TEM DC-2; experiment: as above; assay type: cell-based; details: read-out: Minimum Inhibitory Concentration (MIC)
[7] = test system: Pseudomonas aeruginosa; experiment: Antibacterial activity against Pseudomonas aeruginosa (from Table 1); assay type: cell-based; details: in words
[8] = test system: Esherichia coli NIHJ JC-2; experiment: Minimum Inhibitory Concentration (MIC), antibacterial spectrum in vitro; assay type: cell-based
[9] = test system: Pseudomonas aeruginosa E-2; experiment: as above; assay type: cell-based
[10] = Concentration in Blood Serum after subcutaneous dosing (bioassay using Escherichia coli); assay type: in vivo; details: mouse, sc, 25 mg/Kg subcutaneously, mice; for concentration at 0.5 h: 1/2 hour; for concentration at 0.25 h: 1/4 hour; for concentration at 5 min: 1/12 hour
Method: The concentration of the compound in the serum was determined by bioassay using Escherichia coli as assay microorganism.

[11] = test system: Staphylococus aureus (Smith I); experiment: Efficacy in Mice Infected with Staphylococus aureus (Smith I); assay type: in vivo; details: Staphylococcus aureus, sc, 168 h, St. aureus (Smith I) intraperitoneal infection, single subcutaneous dose one hour after infection, 7 days
From the text: as §1

[12] = test system: Proteus morganii 1510; experiment: Minimum Inhibitory Concentration (MIC), antibacterial spectrum in vitro; assay type: cell-based
[13] = test system: Pseudomonas aeruginosa RPL-11; experiment: as above; assay type: cell-based
[14] = test system: Enterobacter cloacae P99; experiment: as above; assay type: cell-based; details: P99, read-out: Minimum Inhibitory Concentration (MIC)
[15] = test system: Klebsiella pneumoniae PCI 602; experiment: as above; assay type: cell-based
[16] = test system: Citrobacter freundii GN-346; experiment: as above; assay type: cell-based
[17] = test system: Streptococcus faecalis; experiment: Antibacterial activity against Streptococcus faecalis (statement in words); assay type: cell-based
[18] = ATCC8043, Streptococcus faecalis ATCC 8043, read-out: Minimum Inhibitory Concentration (MIC)
[19] = MB3833, Pseudomonas aeruginosa MB-3833, read-out: Minimum Inhibitory Concentration (MIC)
[20] = Ps. aeruginosa (GN 10362) intraperitoneal infection, mice, single subcutaneous dose one hour after infection, 7 days, read-out: ED 50
[21] = 209PJC1, Staphylococcus aureus 209 P JC-1, read-out: Minimum Inhibitory Concentration (MIC)
[22] = E2, Pseudomonas aeruginosa E-2, read-out: Minimum Inhibitory Concentration (MIC)
[23] = Morganella morganii, Proteus morganii 1510, read-out: Minimum Inhibitory Concentration (MIC)
[24] = RPL11, Pseudomonas aeruginosa RPL-11, read-out: Minimum Inhibitory Concentration (MIC)
[25] = PCI602, Klebsiella pneumoniae PCI 602, read-out: Minimum Inhibitory Concentration (MIC)
[26] = GN346, Citrobacter freundii GN-346, read-out: Minimum Inhibitory Concentration (MIC)

SMILES | MIC [1, 18] | MIC [2, 19] | MIC ([4]; Salmonella typhimurium LT-2) | MIC [5, 21] | MIC [8] | MIC [9, 22] | MIC [12, 23] | MIC [15, 25] | MIC [16, 26] | MIC [6] | effectiveness against Pseudomonas aeruginosa [7] | concentration at 0.5 h [10] | concentration at 0.25 h [10] | concentration at 5 min [10] | concentration at 1 h [10] | MIC [13, 24] | MIC [14] | effectiveness against Streptococcus faecalis [17] | also measured
C[n+]1ccc(SCC2=C(C(=O)[O-])N3C(=O)C(NC(=O)C(=NOC(C)(C)C(=O)O)c4csc(N)n4)C3OC2)cc1 [Compound 14, (6R,7R)-7-((Z)-2-(2-Aminothiazole-4-yl)-2-(2-carboxyprop-2-oxyimino)acetamide-3-(1-methylpyridinium-4-yl-thiomethyl)-1-oxa-1-dethiaceph-3-em-4-carboxylate (Sodium Salt)] | > 100 µg/mL | 1.56 µg/mL | < 0.025 µg/mL | 1.56 µg/mL | 0.1 µg/mL | 1.56 µg/mL | 3.13 µg/mL | 0.1 µg/mL | 50 µg/mL | 0.25 µg/mL | effective against Pseudomonas aeruginosa | 8800 ng/mL | 11500 ng/mL | 18000 ng/mL | 5000 ng/mL | 64 µg/mL | 128 µg/mL | – | ED50 [3, 20]: 0.13 mg/kg; ED50 [11]: 0.016 mg/kg
C[n+]1ccc(SCC2=C(C(=O)[O-])N3C(=O)C(NC(=O)C(=NOCC(=O)O)c4csc(N)n4)C3OC2)cc1 [Compound 13, (6R,7R)-7-((Z)-2-(2-Aminothiazole-4-yl)-2-carboxymethoxyiminoacetamide)-3-(1-methylpyridinium-4-ylthiomethyl)-1-oxa-1-dethiaceph-3-em-4-carboxylate (Sodium Salt)] | 50 µg/mL | 6.25 µg/mL | < 0.025 µg/mL | 1.56 µg/mL | < 0.025 µg/mL | 6.25 µg/mL | 1.56 µg/mL | 25 µg/mL | 6.25 µg/mL | 1 µg/mL | – | – | – | – | – | 128 µg/mL | 64 µg/mL | – | –
CC(C)(O/N=C(\C(=O)N[C@@H]1C(=O)N2C(C(=O)[O-])=C(C[n+]3ccccc3)CS[C@H]12)c1csc(N)n1)C(=O)O [Ceftazidime, reference compound] | – | – | – | – | 0.1 µg/mL (≈ 0.183 µM) | – | – | – | – | 0.5 µg/mL (≈ 0.915 µM) | – | 11500 ng/mL | 20000 ng/mL | 13000 ng/mL | 6300 ng/mL | – | 64 µg/mL (≈ 117 µM) | – | MIC ([1]; ATCC8043, read-out: Minimum Inhibitory Concentration (MIC)): 50 µg/mL (≈ 91.5 µM); MIC ([2]; Pseudomonas aeruginosa, MB3833, read-out: Minimum Inhibitory Concentration (MIC)): 0.78 µg/mL (≈ 1.43 µM); ED50 [3]: 0.22 mg/kg; MIC ([4]; TYPHIMURIUM): 0.05 µg/mL (≈ 0.0915 µM); MIC ([5]; Staphylococcus aureus, 209PJC1, read-out: Minimum Inhibitory Concentration (MIC)): 1.56 µg/mL (≈ 2.85 µM); MIC ([9]; Pseudomonas aeruginosa, E2, read-out: Minimum Inhibitory Concentration (MIC)): 0.78 µg/mL (≈ 1.43 µM); MIC ([12]; Morganella morganii, 1510, read-out: Minimum Inhibitory Concentration (MIC)): 12.5 µg/mL (≈ 22.9 µM); MIC ([13]; Pseudomonas aeruginosa, RPL11, read-out: Minimum Inhibitory Concentration (MIC)): 3 µg/mL (≈ 5.49 µM); MIC ([15]; Klebsiella pneumoniae, PCI602, read-out: Minimum Inhibitory Concentration (MIC)): 0.1 µg/mL (≈ 0.183 µM); MIC ([16]; Citrobacter freundii, GN346, read-out: Minimum Inhibitory Concentration (MIC)): 25 µg/mL (≈ 45.7 µM)
CC(C)(ON=C(C(=O)NC1C(=O)N2C(C(=O)[O-])=C(CSc3cc[n+](CC(F)(F)F)cc3)COC12)c1csc(N)n1)C(=O)O [Compound 16, (6R,7R)-7-((Z)-2-(2-Aminothiazole-4-yl)-2-(2-carboxyprop-2-oxyimino)acetamide)-3-(1-(2,2,2-trifluoroethyl)-pyridinium-4-ylthiomethyl)-1-oxa-1-dethiaceph-3-em-4-carboxylate (Sodium Salt)] | > 100 µg/mL | 1.56 µg/mL | < 0.025 µg/mL | 3.13 µg/mL | 0.1 µg/mL | 1.56 µg/mL | 6.25 µg/mL | 0.1 µg/mL | 25 µg/mL | 0.03 µg/mL | effective against Pseudomonas aeruginosa | 11000 ng/mL | 20000 ng/mL | 16000 ng/mL | 2400 ng/mL | 32 µg/mL | 128 µg/mL | – | –
CCON=C(C(=O)NC1C(=O)N2C(C(=O)[O-])=C(CSc3cc[n+](CC(=O)O)cc3)COC12)c1csc(N)n1 [Compound 12, (6R,7R)-7-((Z)-2-(2-Aminothiazole-4-yl)-2-ethoxyiminoacetamido)-3-(1-carboxymethylpyridinium-4-ylthiomethyl)-1-oxa-1-dethiaceph-3-em-4-carboxylate (Sodium Salt)] | 6.25 µg/mL | 12.5 µg/mL | < 0.025 µg/mL | 0.39 µg/mL | < 0.025 µg/mL | 25 µg/mL | 12.5 µg/mL | 0.025 µg/mL | 12.5 µg/mL | – | – | – | – | – | – | – | – | effective against Streptococcus faecalis | –
CO[C@@]1(NC(=O)C(C(=O)O)c2ccc(O)cc2)C(=O)N2C(C(=O)O)=C(CSc3nnnn3C)CO[C@@H]21 (stereo partly shown) [Latamoxef, reference compound] | 25 µg/mL (≈ 48 µM) | 6.25 µg/mL (≈ 12 µM) | 0.05 µg/mL (≈ 0.0961 µM) | 3.13 µg/mL (≈ 6.01 µM) | 0.1 µg/mL (≈ 0.192 µM) | 6.25 µg/mL (≈ 12 µM) | 0.2 µg/mL (≈ 0.384 µM) | 0.2 µg/mL (≈ 0.384 µM) | 1.56 µg/mL (≈ 3 µM) | – | – | – | – | – | – | – | – | – | ED50 [3, 20]: 2.9 mg/kg; ED50 [11]: 0.67 mg/kg

Now from value to compound, other results behind:

MIC [1, 18] | MIC [2, 19] | MIC ([4]; Salmonella typhimurium LT-2) | MIC [5, 21] | MIC [8] | MIC [9, 22] | MIC [12, 23] | MIC [15, 25] | MIC [16, 26] | SMILES | MIC [6] | effectiveness against Pseudomonas aeruginosa [7] | concentration at 0.5 h [10] | concentration at 0.25 h [10] | concentration at 5 min [10] | concentration at 1 h [10] | MIC [13, 24] | MIC [14] | effectiveness against Streptococcus faecalis [17] | also measured
12.5 µg/mL (≈ 21.3 µM) | 3.13 µg/mL (≈ 5.34 µM) | < 0.025 µg/mL | 0.2 µg/mL (≈ 0.341 µM) | 0.05 µg/mL (≈ 0.0852 µM) | 3.13 µg/mL (≈ 5.34 µM) | 6.25 µg/mL (≈ 10.7 µM) | 0.1 µg/mL (≈ 0.17 µM) | 50 µg/mL (≈ 85.2 µM) | CON=C(C(=O)NC1C(=O)N2C(C(=O)[O-])=C(CSc3cc[n+](CC(F)(F)F)cc3)C(C)OC12)c1csc(N)n1 [Compound 6, (6R,7R)-7-((Z)-2-(2-Aminothiazole-4-yl)-2-methoxyiminoacetamide)-(2S)-2-methyl-3-(1-(2,2,2-trifluoroethyl)pyridinium-4-ylthiomethyl)-1-oxa-1-dethiaceph-3-em-4-carboxylate] | – | effective against Pseudomonas aeruginosa | – | – | – | – | – | – | effective against Streptococcus faecalis | –
1.56 µg/mL (≈ 3.09 µM) | 6.25 µg/mL (≈ 12.4 µM) | < 0.025 µg/mL | 0.1 µg/mL (≈ 0.198 µM) | < 0.025 µg/mL | 25 µg/mL (≈ 49.5 µM) | 1.56 µg/mL (≈ 3.09 µM) | 0.025 µg/mL (≈ 0.0495 µM) | 1.56 µg/mL (≈ 3.09 µM) | CON=C(C(=O)NC1C(=O)N2C(C(=O)[O-])=C(CSc3cc[n+](C)cc3)COC12)c1csc(N)n1 [Compound 10, (6R,7R)-7-((Z)-2-(2-Aminothiazole-4-yl)-2-methoxyiminoacetamide)-3-(1-methylpyridinium-4-yl-thiomethyl)-1-oxa-1-dethiaceph-3-em-4-carboxylate] | – | – | – | – | – | – | – | – | effective against Streptococcus faecalis | –
12.5 µg/mL | 12.5 µg/mL | < 0.025 µg/mL | 0.39 µg/mL | < 0.025 µg/mL | 12.5 µg/mL | 0.78 µg/mL | 0.025 µg/mL | 6.25 µg/mL | CON=C(C(=O)NC1C(=O)N2C(C(=O)[O-])=C(CSc3cc[n+](CC(=O)O)cc3)C(C)OC12)c1csc(N)n1 [Compound 7, (6R,7R)-7-((Z)-2-(2-Aminothiazole-4-yl)-2-methoxyiminoacetamide)-(2S)-2-methyl-3-(1-carboxymethylpyridinium-4-ylthiomethyl)-1-oxa-1-dethiaceph-3-em-4-carboxylate (Sodium Salt)] | – | – | – | – | – | – | – | – | effective against Streptococcus faecalis | –
6.25 µg/mL | 12.5 µg/mL | 0.05 µg/mL | 0.39 µg/mL | 0.1 µg/mL | 12.5 µg/mL | 0.78 µg/mL | 0.05 µg/mL | 6.25 µg/mL | CCON=C(C(=O)NC1C(=O)N2C(C(=O)[O-])=C(CSc3cc[n+](CC(=O)O)cc3)C(C)OC12)c1csc(N)n1 [Compound 8, (6R,7R)-7(Z)-2-(2-Aminothiazole-4-yl)-2-ethoxyiminoacetamide)-(2S)-2-methyl-3-(1-carboxymethylpyridinium-4-ylthiomethyl)-1-oxa-1-dethiaceph-3-em-4-carboxylate (Sodium Salt)] | – | – | – | – | – | – | – | – | effective against Streptococcus faecalis | –
